{"source": "PubChem BioAssay AID1918939", "about": "(Molecular Pharmacology Branch, DTP, NCI, 2023)", "system": "653999-131-R-J2-PDC complex spheroid viability", "test": "Anticancer human tumor 653999-131-R-J2-PDC patient-derived lung adenocarcinoma cell line growth inhibition", "conditions": "for IC50: curve of first compound; for viability, T/C: stronger effect = lower value", "from_the_text": "Multicellular complex tumor spheroid response to LSD1 Inhibitor Iadademstat in combination with a variety of drugs and investigational agents in selected tumor cell lines\nThe current study was undertaken to assess response to LSD1 inhibitors in combination with standard-of-care drugs and investigational agents in solid tumor complex spheroid models as well as in the K-562 leukemia. Complex spheroids include a stromal component modeled by human endothelial cells (HUVEC) and fibroblasts modeled by human mesenchymal stem cells (MSCs). The concentration ranges selected for each drug and investigational agent were based upon clinically achievable concentrations if the clinical Cmax of the agent was known.\nCompounds. The drugs and investigational agents used in this study are listed on Table 1. All of the agents used, including staurosporine (NSC755774) and gemcitabine (NSC613327), were obtained from the Developmental Therapeutics Program, NCI. FDA-approved anticancer drugs are available from the NCI at http://dtp.nci.nih.gov/branches/dscb/oncology_drugset_explanation.html. Drugs and investigational agents were >95% pure by proton nuclear magnetic resonance (NMR) and liquid chromatography/mass spectrometry (LC/MS). Stock solutions were prepared at 400x in DMSO, stored at -70 degrees C, and diluted in fresh medium prior to their use. The final concentration of DMSO in cell culture wells never exceeded 0.25% (v/v). The FDA-approved anticancer drug set is available from the Developmental Therapeutics Program at https://dtp.cancer.gov/organization/dscb/obtaining/available_plates.htm. All drugs and investigational agents were tested over a range starting from a high concentration at or near the clinical Cmax and decreasing in half-log increments. If the clinical Cmax for an agent had not been determined, the highest concentration tested was 10 microM.\nCell Lines. The patient-derived cancer cell (PDC) lines: 292921-168-R-J2-PDC, K24384-001-R-PDC, and 521955-158-R2-J5-PDC pancreatic carcinomas, 556581-035-R-J1 ovarian carcinoma, 324938-238-R-J1-PDC, 855422-203-R-J1-PDC and 883617-216-R-J1-PDC urothelial bladder carcinomas, 743489-274-T-PDC renal cell carcinoma, 138582-R-J1 Merkel cell tumor, K60290-347-R-J1 and K57222-313-R-J1-PDC glioblastomas, 653999-131-R-J2-PDC, LG0703-F948-PDC, and 349418-098-R-PDC non-small cell lung carcinomas, 885512-296-R-J2-PDC, 171881-019-R-J1-PDC breast carcinomas and 186277-243-T-J2-PDC and 233499-124-R-J2-PDC colon carcinomas were obtained from the NCI Patient-Derived Models Repository (PDMR, https://pdmr.cancer.gov). The established cell lines NCI/ADR-RES (RRID:CVCL_14520 and OVCAR-5 (RRID:CVCL_1628) ovarian carcinomas, 786-O (RRID:CVCL_1051) and A498 (RRID:CVCL_A498) renal cell carcinoma, NCI-H211 (ATCC, cat. CRL-5824; RRID:CVCL_1529), NCI-H196 (ATCC, cat. CRL-5823, RRID:CVCL_1509), SW 1271 (ATCC, cat. CRL-2177, RRID:CVCL_1716) and NCI-H1876 (ATCC, cat. CRL-5902, RRID:CVCL_1503) small cell lung carcinomas, MDA-MB-231 (RRID:CVCL_0062) and MDA-MB-468 (RRID:CVCL_0419)breast carcinomas (10-12). Pooled donor human umbilical vein endothelial cells (HUVEC, Lonza, cat. CC-2519) and human mesenchymal stem cells (hMSC, Lonza, cat. PT-2501) were purchased from Lonza (Walkersville, MD).\nCell Culture. All cells were maintained in an incubator at 37 degrees C and 5% CO2 with 95% humidity. The PDC lines were cultured according to standard operating procedures established by the NCI PDMR (https://pdmr.cancer.gov). Briefly all PDCs were thawed and cultured in Matrigel-coated flasks prepared with a working solution of 1X Ham's F-12 nutrient mix, without supplementation (Invitrogen, Waltham, MA, cat. 11765054), 100 U/mL penicillin-streptomycin (Invitrogen, cat. 15140122), and 2.5% Matrigel (Corning Inc., Corning, NY, cat. 354248) for the first three passages. […]", "data": [{"compound": "CC[C@@]1(O)C(=O)OCc2c1cc1n(c2=O)Cc2cc3c(CN(C)C)c(O)ccc3nc2-1", "note": "+ NC1CC1c1ccc(-c2cccc(O)c2)cc1;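 note: spheroids exposed to agents for seven days before readout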", "values": [{"measurement": "IC50", "setting": "second compound 0.1 µM", "result": 11.6, "unit": "nM"}, {"measurement": "IC50", "setting": "second compound 0.316 µM", "result": 9.2, "unit": "nM"}, {"measurement": "IC50", "setting": "second compound 1 µM", "result": 9.32, "unit": "nM"}, {"measurement": "IC50", "setting": "second compound 3.16 µM", "result": 11.3, "unit": "nM"}, {"measurement": "IC50", "setting": "second compound 10 µM", "result": 13.9, "unit": "nM"}, {"measurement": "viability, T/C", "setting": "second compound 0.1 µM, first compound 0.000316 µM", "result": 114, "unit": "%"}, {"measurement": "viability, T/C", "setting": "second compound 0.1 µM, first compound 0.001 µM", "result": 92.8, "unit": "%"}, {"measurement": "viability, T/C", "setting": "second compound 0.1 µM, first compound 0.00316 µM", "result": 85, "unit": "%"}, {"measurement": "viability, T/C", "setting": "second compound 0.1 µM, first compound 0.01 µM", "result": 49.6, "unit": "%"}, {"measurement": "viability, T/C", "setting": "second compound 0.1 µM, first compound 0.0316 µM", "result": 33.6, "unit": "%"}, {"measurement": "viability, T/C", "setting": "second compound 0.1 µM, first compound 0.1 µM", "result": 27.9, "unit": "%"}, {"measurement": "viability, T/C", "setting": "second compound 0.316 µM, first compound 0.000316 µM", "result": 111, "unit": "%"}, {"measurement": "viability, T/C", "setting": "second compound 0.316 µM, first compound 0.001 µM", "result": 108, "unit": "%"}, {"measurement": "viability, T/C", "setting": "second compound 0.316 µM, first compound 0.00316 µM", "result": 83.8, "unit": "%"}, {"measurement": "viability, T/C", "setting": "second compound 0.316 µM, first compound 0.01 µM", "result": 45.6, "unit": "%"}, {"measurement": "viability, T/C", "setting": "second compound 0.316 µM, first compound 0.0316 µM", "result": 35.6, "unit": "%"}, {"measurement": "viability, T/C", "setting": "second compound 0.316 µM, first compound 0.1 µM", "result": 23.2, "unit": "%"}, {"measurement": "viability, T/C", "setting": "second compound 1 µM, first compound 0.000316 µM", "result": 82.6, "unit": "%"}, {"measurement": "viability, T/C", "setting": "second compound 1 µM, first compound 0.001 µM", "result": 101, "unit": "%"}, {"measurement": "viability, T/C", "setting": "second compound 1 µM, first compound 0.00316 µM", "result": 79.6, "unit": "%"}, {"measurement": "viability, T/C", "setting": "second compound 1 µM, first compound 0.01 µM", "result": 47.4, "unit": "%"}, {"measurement": "viability, T/C", "setting": "second compound 1 µM, first compound 0.0316 µM", "result": 35.8, "unit": "%"}, {"measurement": "viability, T/C", "setting": "second compound 1 µM, first compound 0.1 µM", "result": 25.5, "unit": "%"}, {"measurement": "viability, T/C", "setting": "second compound 3.16 µM, first compound 0.000316 µM", "result": 91.6, "unit": "%"}, {"measurement": "viability, T/C", "setting": "second compound 3.16 µM, first compound 0.001 µM", "result": 85.8, "unit": "%"}, {"measurement": "viability, T/C", "setting": "second compound 3.16 µM, first compound 0.00316 µM", "result": 87.1, "unit": "%"}, {"measurement": "viability, T/C", "setting": "second compound 3.16 µM, first compound 0.01 µM", "result": 52, "unit": "%"}, {"measurement": "viability, T/C", "setting": "second compound 3.16 µM, first compound 0.0316 µM", "result": 31.9, "unit": "%"}, {"measurement": "viability, T/C", "setting": "second compound 3.16 µM, first compound 0.1 µM", "result": 27.9, "unit": "%"}, {"measurement": "viability, T/C", "setting": "second compound 10 µM, first compound 0.000316 µM", "result": 86.9, "unit": "%"}, {"measurement": "viability, T/C", "setting": "second compound 10 µM, first compound 0.001 µM", "result": 87.6, "unit": "%"}, {"measurement": "viability, T/C", "setting": "second compound 10 µM, first compound 0.00316 µM", "result": 80.7, "unit": "%"}, {"measurement": "viability, T/C", "setting": "second compound 10 µM, first compound 0.01 µM", "result": 54.9, "unit": "%"}, {"measurement": "viability, T/C", "setting": "second compound 10 µM, first compound 0.0316 µM", "result": 36.1, "unit": "%"}, {"measurement": "viability, T/C", "setting": "second compound 10 µM, first compound 0.1 µM", "result": 26.4, "unit": "%"}]}, {"compound": "COc1cc(C2c3cc4c(cc3C(OC3OC5COC(C)OC5C(O)C3O)C3COC(=O)C23)OCO4)cc(OC)c1O", "note": "(stereo not given) + NC1CC1c1ccc(-c2cccc(O)c2)cc1", "values": [{"measurement": "IC50", "setting": "second compound 0.1 µM", "result": 166, "unit": "nM"}, {"measurement": "IC50", "setting": "second compound 0.316 µM", "result": 135, "unit": "nM"}, {"measurement": "IC50", "setting": "second compound 1 µM", "result": 110, "unit": "nM"}, {"measurement": "IC50", "setting": "second compound 3.16 µM", "result": 97.6, "unit": "nM"}, {"measurement": "IC50", "setting": "second compound 10 µM", "result": 248, "unit": "nM"}, {"measurement": "viability, T/C", "setting": "second compound 0.1 µM, first compound 0.00949 µM", "result": 83.5, "unit": "%"}, {"measurement": "viability, T/C", "setting": "second compound 0.1 µM, first compound 0.03 µM", "result": 67.2, "unit": "%"}, {"measurement": "viability, T/C", "setting": "second compound 0.1 µM, first compound 0.0949 µM", "result": 57.9, "unit": "%"}, {"measurement": "viability, T/C", "setting": "second compound 0.1 µM, first compound 0.3 µM", "result": 41.4, "unit": "%"}, {"measurement": "viability, T/C", "setting": "second compound 0.1 µM, first compound 0.949 µM", "result": 37, "unit": "%"}, {"measurement": "viability, T/C", "setting": "second compound 0.1 µM, first compound 3 µM", "result": 27.8, "unit": "%"}, {"measurement": "viability, T/C", "setting": "second compound 0.316 µM, first compound 0.00949 µM", "result": 75.4, "unit": "%"}, {"measurement": "viability, T/C", "setting": "second compound 0.316 µM, first compound 0.03 µM", "result": 62.9, "unit": "%"}, {"measurement": "viability, T/C", "setting": "second compound 0.316 µM, first compound 0.0949 µM", "result": 50.3, "unit": "%"}, {"measurement": "viability, T/C", "setting": "second compound 0.316 µM, first compound 0.3 µM", "result": 45.9, "unit": "%"}, {"measurement": "viability, T/C", "setting": "second compound 0.316 µM, first compound 0.949 µM", "result": 34.8, "unit": "%"}, {"measurement": "viability, T/C", "setting": "second compound 0.316 µM, first compound 3 µM", "result": 25.2, "unit": "%"}, {"measurement": "viability, T/C", "setting": "second compound 1 µM, first compound 0.00949 µM", "result": 75.7, "unit": "%"}, {"measurement": "viability, T/C", "setting": "second compound 1 µM, first compound 0.03 µM", "result": 64, "unit": "%"}, {"measurement": "viability, T/C", "setting": "second compound 1 µM, first compound 0.0949 µM", "result": 51.8, "unit": "%"}, {"measurement": "viability, T/C", "setting": "second compound 1 µM, first compound 0.3 µM", "result": 38.3, "unit": "%"}, {"measurement": "viability, T/C", "setting": "second compound 1 µM, first compound 0.949 µM", "result": 35.9, "unit": "%"}, {"measurement": "viability, T/C", "setting": "second compound 1 µM, first compound 3 µM", "result": 26.1, "unit": "%"}, {"measurement": "viability, T/C", "setting": "second compound 3.16 µM, first compound 0.00949 µM", "result": 77.3, "unit": "%"}, {"measurement": "viability, T/C", "setting": "second compound 3.16 µM, first compound 0.03 µM", "result": 66.2, "unit": "%"}, {"measurement": "viability, T/C", "setting": "second compound 3.16 µM, first compound 0.0949 µM", "result": 49.4, "unit": "%"}, {"measurement": "viability, T/C", "setting": "second compound 3.16 µM, first compound 0.3 µM", "result": 39.5, "unit": "%"}, {"measurement": "viability, T/C", "setting": "second compound 3.16 µM, first compound 0.949 µM", "result": 32.8, "unit": "%"}, {"measurement": "viability, T/C", "setting": "second compound 3.16 µM, first compound 3 µM", "result": 30.5, "unit": "%"}, {"measurement": "viability, T/C", "setting": "second compound 10 µM, first compound 0.00949 µM", "result": 73, "unit": "%"}, {"measurement": "viability, T/C", "setting": "second compound 10 µM, first compound 0.03 µM", "result": 65.9, "unit": "%"}, {"measurement": "viability, T/C", "setting": "second compound 10 µM, first compound 0.0949 µM", "result": 61.5, "unit": "%"}, {"measurement": "viability, T/C", "setting": "second compound 10 µM, first compound 0.3 µM", "result": 46.3, "unit": "%"}, {"measurement": "viability, T/C", "setting": "second compound 10 µM, first compound 0.949 µM", "result": 39, "unit": "%"}, {"measurement": "viability, T/C", "setting": "second compound 10 µM, first compound 3 µM", "result": 31.1, "unit": "%"}]}]}
